# Results as given in US7863499B2, “Model of infantile spasm syndrome” (Albert Einstein College of Medicine of Yeshiva University, priority 2007, dated 2011).
# Tested on: rat pups
# Test: Induction of spasm-like seizures in rat pups (video monitoring)
# Type: in vivo
# Conditions: PCPA only, five pups
# Procedure: […] The pups were injected with DOX i.c.v. and LPS intracerebrally in the right centroparietal cortex at P3; PCPA was administered i.p. at P5. […] There were no sex differences and the data were combined.
# Behavioral seizures and spasm-like episodes. […] Seven pups had recurrent seizures resembling spasms. Spasms were first observed at P7 in 60% of the pups. […] The spasms were characterized by the abrupt onset of flexion of the trunk with extension of the limbs at the height of the spasm (the sequence is shown in FIG. 2). In two pups, extension spasms were sometimes observed. The spasms lasted from 1 to 5 seconds.
# Anesthesia. Rat pups were anesthetized with 2% isoflurane in 100% O2 continuously delivered by a small facemask, custom-fitted to the stereotaxic frame.
# Injections of DOX and LPS. Both male and female rats were used. At P3, stereotaxic injections of DOX and LPS were performed using a 25 μL Hamilton syringe. DOX was injected into the right ventricle (AP=−1.0, ML=1.1, DV=−3.3, reference to bregma) and LPS into the right cerebral hemisphere (AP=−1.0, ML=1.0, DV=2.0, reference to bregma). The injection volume is 5 μl for DOX and 7 μl for LPS. The pups were allowed to recover before returning to the dam.
# Titration of doses of agents used to induce spasms. […]
compound,measurement,value
"N[C@@H](Cc1ccc(Cl)cc1)C(=O)O (racemic) [PCPA, p-chlorophenylalanine]",development of spasms,none of those pups developed spasms
